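Grown in 96-well plates, cells were treated for 48 hours with each compound at five concentrations. Insufficient inhibition: endpoint recorded as highest concentration tested. TGI: total growth inhibition.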
Key:
Test in all cases: growth of human tumour cells (NCI), 48 h
ACHN renal = tested on: ACHN renal
SNB-75 CNS = tested on: SNB-75 CNS
RPMI-8226 leukemia = tested on: RPMI-8226 leukemia
HT29 colon = tested on: HT29 colon
HOP-92 NSCLC = tested on: HOP-92 NSCLC
SF-539 CNS = tested on: SF-539 CNS
NCI/ADR-RES ovarian = tested on: NCI/ADR-RES ovarian
SN12C renal = tested on: SN12C renal
MDA-MB-231 breast = tested on: MDA-MB-231 breast
SK-OV-3 ovarian = tested on: SK-OV-3 ovarian
SK-MEL-5 melanoma = tested on: SK-MEL-5 melanoma
NCI-H23 lung = tested on: NCI-H23 lung
OVCAR-3 ovarian = tested on: OVCAR-3 ovarian
HCT-15 colon = tested on: HCT-15 colon
BT-549 breast = tested on: BT-549 breast
SR leukemia = tested on: SR leukemia
COLO 205 colon = tested on: COLO 205 colon
CAKI-1 renal = tested on: CAKI-1 renal
UO-31 renal = tested on: UO-31 renal
LOX IMVI melanoma = tested on: LOX IMVI melanoma
NCI-H460 lung = tested on: NCI-H460 lung
SF-295 CNS = tested on: SF-295 CNS
HCC-2998 colon = tested on: HCC-2998 colon
NCI-H522 lung = tested on: NCI-H522 lung
K-562 leukemia = tested on: K-562 leukemia
MOLT-4 leukemia = tested on: MOLT-4 leukemia
M14 melanoma = tested on: M14 melanoma
HL-60(TB) leukemia = tested on: HL-60(TB) leukemia
786-0 renal = tested on: 786-0 renal
U251 CNS = tested on: U251 CNS
HCT-116 colon = tested on: HCT-116 colon
UACC-257 melanoma = tested on: UACC-257 melanoma
OVCAR-4 ovarian = tested on: OVCAR-4 ovarian
PC-3 prostate = tested on: PC-3 prostate
DU-145 prostate = tested on: DU-145 prostate
EKVX NSCLC = tested on: EKVX NSCLC
MCF7 breast = tested on: MCF7 breast
HOP-62 NSCLC = tested on: HOP-62 NSCLC
SW-620 colon = tested on: SW-620 colon
SK-MEL-2 melanoma = tested on: SK-MEL-2 melanoma
KM12 colon = tested on: KM12 colon
UACC-62 melanoma = tested on: UACC-62 melanoma
SK-MEL-28 melanoma = tested on: SK-MEL-28 melanoma
RXF 393 renal = tested on: RXF 393 renal
A498 renal = tested on: A498 renal
CCRF-CEM leukemia = tested on: CCRF-CEM leukemia
SF-268 CNS = tested on: SF-268 CNS
A549 NSCLC = tested on: A549 NSCLC
T-47D breast = tested on: T-47D breast
IGROV1 ovarian = tested on: IGROV1 ovarian
MDA-MB-435 = tested on: MDA-MB-435
OVCAR-8 ovarian = tested on: OVCAR-8 ovarian
OVCAR-5 ovarian = tested on: OVCAR-5 ovarian
NCI-H226 lung = tested on: NCI-H226 lung
TK-10 renal = tested on: TK-10 renal

Measured: TGI

COc1ccc(-n2c(=O)c3[nH]cnc3n(-c3ccc(OC)cc3)c2=S)cc1
> 100 µM: all assays above

Source: PubChem BioAssay (NCI)
